Here are results for 37 compounds from PMC6471618, “Comparison of the Sulfonamide Inhibition Profiles of the α-Carbonic Anhydrase Isoforms (SpiCA1, SpiCA2 and SpiCA3) Encoded by the Genome of the Scleractinian Coral Stylophora pistillata” (Marine Drugs, 2019).

SMILES strings stand for the structures. Entries after “also recorded” stand apart in the source; their conditions may differ. Where two headings read alike, the source gives them in different places.

Test [1] has as its system coral calcification rates. More on the design: method as in PMID 27513959. The following applies: cited from earlier work.
In the next test the target is SpiCA3 (Stylophora pistillata, UniProt A0A1B0Y357). The test is classed as biochemical. Here is the method: An Applied Photophysics stopped-flow instrument (Leatherhead, Surrey (UK)) has been used for assaying the CA catalyzed CO2 hydration activity. […] The un-catalyzed rates were determined in the same manner and subtracted from the total observed rates. […] The inhibition constants were obtained by non-linear least-squares methods using PRISM 3 and the Cheng-Prusoff equation, as reported earlier, and represent the mean from at least three different determinations. All CA isoforms were recombinant ones obtained in-house. All salts/small molecules were of the highest purity available, from Sigma-Aldrich (Milan, Italy).

The next test deals with SpiCA1. More on the design: method as in References 12 and 45. Particulars: ref References 12 and 45, cited from earlier work; for SpiCA1 inhibition, in words: authors' grading of the KI values of Table 1; for Ki: coral recombinant isoform, stopped flow CO2 hydrase assay.
The test system of another test is hCA I. On the set-up: method as in References 12 and 45. The following applies: ref References 12 and 45, cited from earlier work; for hCA I inhibition, in words: authors' grading of the KI values of Table 1; for Ki: human recombinant isozyme, stopped flow CO2 hydrase assay.
The subject of the next test is hCA II. More on the design: method as in References 12 and 45. The following applies: cited from earlier work.
A further test relates to SpiCA2. On the set-up: method as in References 12 and 45. The following applies: ref References 12 and 45, cited from earlier work; for SpiCA2 inhibition, in words: authors' grading of the KI values of Table 1; for Ki: coral recombinant isoform, stopped flow CO2 hydrase assay.
Where [2] appears, read: authors' grading of the KI values of Table 1.
Setting [3] is: read-out: KI SpiCA3; recombinant coral isoform, stopped-flow CO2 hydration, 20 mM TRIS pH 8.3, 15 min preincubation; errors 5–10%, 3 assays.
Where [4] appears, read: recombinant coral isoform, stopped-flow CO2 hydration, 20 mM TRIS pH 8.3, 15 min preincubation; errors 5–10%, 3 assays; read-out: KI SpiCA3.

Chain of SpiCA3 (A0A1B0Y357 entry or part of it): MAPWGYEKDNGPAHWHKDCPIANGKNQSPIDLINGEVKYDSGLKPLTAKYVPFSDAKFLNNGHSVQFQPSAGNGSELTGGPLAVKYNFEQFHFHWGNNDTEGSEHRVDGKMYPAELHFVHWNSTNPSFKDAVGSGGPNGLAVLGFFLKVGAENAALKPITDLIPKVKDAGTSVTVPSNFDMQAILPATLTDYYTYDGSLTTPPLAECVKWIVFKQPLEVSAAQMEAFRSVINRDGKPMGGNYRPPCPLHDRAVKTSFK

As to `CC(=O)Nc1nnc(S(N)(=O)=O)s1` [AAZ, acetazolamide], the “inhibition of coral calcification rates” value in test [1] is on record as “up to 73%”.
In the case of `CCN[C@H]1CN(CCCOC)S(=O)(=O)c2sc(S(N)(=O)=O)cc21` [BRZ, brinzolamide], the “SpiCA3 inhibition, in words” value on SpiCA3 (setting [2]) was “low potency inhibitors”. The Ki at SpiCA3 (setting [3]) was found to be 250 nM. In the test with SpiCA1, the “SpiCA1 inhibition, in words” value was “high potency inhibitors” and the Ki was 48 nM. Further, the “hCA I inhibition, in words” value with hCA I is listed as “didn’t affect the hCAI activity”. For the same compound, the “hCA II inhibition, in words” value in the test on hCA II is given as “high potency inhibitors”. Besides, in the test with SpiCA2, the “SpiCA2 inhibition, in words” value is reported as “low potency inhibitors” and the Ki is 169 nM.
As to `NS(=O)(=O)c1nnc(NS(=O)(=O)c2ccccc2)s1` [BZA, benzolamide], the figures for the Ki at SpiCA3 (setting [3]), on SpiCA1 and on SpiCA2 were 394 nM, 20 nM and 214 nM, respectively.
In the case of `Cc1ccc(-c2cc(C(F)(F)F)nn2-c2ccc(S(N)(=O)=O)cc2)cc1` [CLX, celecoxib], the “SpiCA3 inhibition, in words” value on SpiCA3 (setting [2]) is on record as “worst inhibitors; also recorded: low potency inhibitors”. Besides, in the test on SpiCA1, the “SpiCA1 inhibition, in words” value was “high potency inhibitors” and the Ki is 34 nM. The “hCA I inhibition, in words” value with hCA I was “didn’t affect the hCAI activity”. In addition, in the test with SpiCA2, the “SpiCA2 inhibition, in words” value is given as “low potency inhibitors” and the inhibition constant Ki was 690 nM.
For `Nc1ccc(S(N)(=O)=O)cc1` [Compound 2], at SpiCA3 (setting [2]), the “SpiCA3 inhibition, in words” value is “worst inhibitors”. Further, at SpiCA1, the Ki was 364 nM.
With `NS(=O)(=O)c1cccc(S(N)(=O)=O)c1` [Compound 3], the Ki at SpiCA3 (setting [4]) is 667 nM; on hCA I it was 79 nM.
Take `Cc1ccc(S(N)(=O)=O)cc1` [Compound 4]: the Ki at SpiCA3 (setting [3]) was 694 nM; on SpiCA1 it was 614 nM; on hCA I, 78500 nM; on SpiCA2 it was 516 nM.
For the compound `NCc1ccc(S(N)(=O)=O)cc1` [Compound 5], the “SpiCA3 inhibition, in words” value at SpiCA3 (setting [2]) was “worst inhibitors”. For the same compound, the Ki is 83 nM on SpiCA1 and 508 nM at SpiCA2.
As for `NCCc1ccc(S(N)(=O)=O)cc1` [Compound 6], at SpiCA3 (setting [2]), the “SpiCA3 inhibition, in words” value is “worst inhibitors”. The Ki on SpiCA1 is 94 nM; on SpiCA2, 577 nM.
`Nc1ccc(S(N)(=O)=O)cc1F` [Compound 7]: the “SpiCA3 inhibition, in words” value on SpiCA3 (setting [2]) is listed as “worst inhibitors”. Further, at SpiCA1, the Ki was 75 nM.
For the compound `Nc1ccc(S(N)(=O)=O)cc1Cl` [Compound 8], the “SpiCA3 inhibition, in words” value on SpiCA3 (setting [2]) was “worst inhibitors”. The inhibition constant (Ki) at SpiCA3 (setting [4]) is 1810 nM; at SpiCA1, 88 nM.
As to `Nc1ccc(S(N)(=O)=O)cc1Br` [Compound 9], the Ki was 918 nM on SpiCA3 (setting [4]), 104 nM at SpiCA1 and 540 nM at SpiCA2.
Consider `Nc1cc(C(F)(F)F)c(S(N)(=O)=O)cc1S(N)(=O)=O` [Compound 11], for which the Ki at SpiCA3 (setting [3]) is 856 nM; on SpiCA1 it was 367 nM.
Regarding `Nc1cc(Cl)c(S(N)(=O)=O)cc1S(N)(=O)=O` [Compound 12], the Ki was 430 nM on SpiCA3 (setting [4]) and 295 nM on SpiCA1.
Regarding `Nc1nnc(S(N)(=O)=O)s1` [Compound 13], the figures for the Ki at SpiCA3 (setting [4]) and at SpiCA1 were 275 nM and 105 nM, respectively.
With `Cn1nc(S(N)(=O)=O)sc1=N` [Compound 14], the Ki at SpiCA3 (setting [4]) was 578 nM; on SpiCA1, 92 nM.
For `NS(=O)(=O)c1ccc(O)cc1` [Compound 15], the Ki on SpiCA3 (setting [4]) worked out at 487 nM.
With `NS(=O)(=O)c1ccc(CO)cc1` [Compound 16], the Ki on SpiCA3 (setting [4]) was found to be 199 nM.
For `NS(=O)(=O)c1ccc(CCO)cc1` [Compound 17], the “SpiCA3 inhibition, in words” value at SpiCA3 (setting [2]) is on record as “well inhibited”. The Ki on SpiCA3 (setting [3]) is 66 nM; at SpiCA1, 770 nM.
`NS(=O)(=O)c1ccc(C(=O)O)cc1` [Compound 18]: the Ki at SpiCA3 (setting [4]) is 241 nM; at SpiCA1, 30 nM.
As to `Nc1nccc(Nc2ccc(S(N)(=O)=O)cc2)n1` [Compound 19], the “SpiCA3 inhibition, in words” value on SpiCA3 (setting [2]) was “well inhibited”. Also, the Ki on SpiCA3 (setting [3]) is 83 nM; on SpiCA1, 25 nM.
For the compound `Nc1ccc(S(=O)(=O)Nc2nnc(S(N)(=O)=O)s2)cc1` [Compound 20], the “SpiCA3 inhibition, in words” value on SpiCA3 (setting [2]) is reported as “well inhibited”. In addition, the inhibition constant Ki is 74 nM on SpiCA3 (setting [3]) and 28 nM on SpiCA1.
As to `NS(=O)(=O)c1ccc(CCNS(=O)(=O)c2ccc([N+](=O)[O-])cc2CO)cc1` [Compound 21], the “SpiCA3 inhibition, in words” value on SpiCA3 (setting [2]) is listed as “well inhibited”. Further, at SpiCA3 (setting [4]), the inhibition constant Ki was 53 nM.
Consider `Nc1ccc(S(=O)(=O)Nc2ccc(S(N)(=O)=O)cc2)cc1` [Compound 22], for which the Ki at SpiCA3 (setting [4]) came out at 568 nM.
`Nc1ccc(S(=O)(=O)NCc2ccc(S(N)(=O)=O)cc2)cc1` [Compound 23]: the “SpiCA3 inhibition, in words” value on SpiCA3 (setting [2]) is reported as “well inhibited”. The Ki at SpiCA3 (setting [4]) turned out to be 62 nM.
Regarding `Nc1ccc(S(=O)(=O)NCCc2ccc(S(N)(=O)=O)cc2)cc1` [Compound 24], the “SpiCA3 inhibition, in words” value at SpiCA3 (setting [2]) is listed as “well inhibited”. Further, the Ki at SpiCA3 (setting [3]) amounted to 46 nM.
Regarding `CCN[C@H]1C[C@H](C)S(=O)(=O)c2sc(S(N)(=O)=O)cc21` [DZA, Dorzolamide], the “SpiCA1 inhibition, in words” value with SpiCA1 is “high potency inhibitors”. Moreover, the “hCA II inhibition, in words” value in the test on hCA II is reported as “high potency inhibitors”. In the test with SpiCA2, the “SpiCA2 inhibition, in words” value is given as “low potency inhibitors”.
For `CCOc1ccc2nc(S(N)(=O)=O)sc2c1` [EZA, ethoxzolamide], the “inhibition of coral calcification rates” value in test [1] was “up to 73%”.
For `NS(=O)(=O)c1cc2c(cc1Cl)NCNS2(=O)=O` [HCT, hydrochlorothiazide], the Ki on SpiCA3 (setting [3]) was determined as 243 nM.
Consider `NS(=O)(=O)c1ccc(S(=O)(=O)Nc2cccc3c(Cl)c[nH]c23)cc1` [IND, indisulam], for which the “SpiCA3 inhibition, in words” value on SpiCA3 (setting [2]) is given as “well inhibited”. Moreover, the Ki was 92 nM at SpiCA3 (setting [4]), 163 nM on SpiCA1 and 394 nM on SpiCA2.
Regarding `CC(=O)/N=c1/sc(S(N)(=O)=O)nn1C` [MZA, methazolamide], the inhibitory constant (Ki) on SpiCA3 (setting [4]) is 821 nM; at SpiCA1 it was 21 nM.
Consider `O=C1NS(=O)(=O)c2ccccc21` [SAC, Saccharin], for which the “SpiCA3 inhibition, in words” value at SpiCA3 (setting [2]) is “worst inhibitors”. Moreover, the inhibition constant (Ki) at SpiCA1 is 40 nM; at hCA I it was 18500 nM; at SpiCA2, 104 nM.
As for `CCN1CCCC1CNC(=O)c1cc(S(N)(=O)=O)ccc1OC` (centres unmarked) [SLP, Sulpiride], the “SpiCA3 inhibition, in words” value at SpiCA3 (setting [2]) is recorded as “worst inhibitors”.
`NS(=O)(=O)c1ccc(N2CCCCS2(=O)=O)cc1` [SLT, sulthiame]: the Ki at SpiCA3 (setting [4]) was 251 nM.
Turning to `CC1(C)O[C@@H]2[C@@H](CO[C@@]3(COS(N)(=O)=O)OC(C)(C)O[C@@H]23)O1` [TPM, topiramate], at SpiCA3 (setting [2]), the “SpiCA3 inhibition, in words” value is on record as “worst inhibitors”. In addition, the Ki at SpiCA1 is 29 nM; at SpiCA2 it was 367 nM.
With `Cc1onc(-c2ccccc2)c1-c1ccc(S(N)(=O)=O)cc1` [VLX, valdecoxib], the “SpiCA2 inhibition, in words” value in the test on SpiCA2 is recorded as “ineffective”.
Turning to `NS(=O)(=O)Cc1noc2ccccc12` [ZNS, zonisamide], the “SpiCA3 inhibition, in words” value at SpiCA3 (setting [2]) is “worst inhibitors”. The values for the Ki at SpiCA1 and on SpiCA2 were 259 nM and 645 nM, respectively.

Broadly, the Ki is a dissociation constant, usually derived from enzyme kinetics or from competition with a known ligand.
